Consider three compounds from patent US7473524B2, “Mutational profiles in HIV-1 protease correlated with phenotypic drug resistance” (priority 2002, dated 2009).

Common to all, as to format: cell-based
For experiment [1], the system named is HIV-1/LAI-derived strain Y181C, G190E, T386A. The experiment in a line: Antiviral activity in MT4 cells, low MOI strain selected at 1.000 μM, day 35. The settings on record: for Fold resistance: Comp. 1 1.000 μM, vs wild type; for EC50: Human immunodeficiency virus 1, MT4, Comp. 1 1.000 μM, read-out: median(EC50 (μM)). Here is the method: (§1) Determination of the antiviral activity of a compound was done as described in Pauwels R. et al. (J Virol Methods 1988; 20(4):309-21). Various concentrations of the test compounds were brought into each well of a flat-bottom microtiter plate. Subsequently, HIV and MT4 cells were added to a final concentration of 200-250 50% cell culture infectious doses (CCID50)/well and 30,000 cells/well, respectively. After 5 days of incubation (37° C., 5% CO2), the cytopathic effect of the replicating virus was determined by the tetrazolium colorimetric MTT method. The dose protecting 50% of the cells from virus cytopathic effect was defined as the EC50, while the dose achieving 90% protection was defined as the EC90.
(§2) The reporter gene assay used MT4-LTR-EGFP cells. Upon infection by HIV-1, the expression of the viral tat product increases transcription from the HIV-1 LTR promoter, leading to high-level expression of the reporter gene product. The assay procedure was similar to the CPE assay except for the end reading of the assay, which was performed on day 3 by measuring the relative fluorescence of treated cultures and comparing this with the relative fluorescence of untreated cultures. The EC50 or the EC90 of a compound was defined as the concentration that inhibited the relative fluorescence by 50% or 90% respectively.
(§3) MT4-LTR-EGFP cells were infected at a multiplicity of infection (MOI) of 0.01 to 0.001 CCID50/cell in the presence of inhibitor. The cultures were sub-cultivated and scored microscopically on virus-induced fluorescence and cytopathogenicity every 3-4 days. The cultures were sub-cultivated in the presence of the same compound concentration until signs of virus replication were observed. The escaping virus was further cultivated in the presence of the same inhibitor concentration in order to enrich the population in resistant variants. If full virus breakthrough was observed the supernatant was collected and stored (new virus strain). Afterwards, the same virus was challenged with a higher compound concentration in order to select variants able to grow in the presence of as high as possible inhibitor concentrations. From the new viruses, a virus stock was grown in the absence of inhibitor.
(§4) The in vitro antiviral activity of compound 1 and current reverse transcriptase inhibitors against the selected strains was evaluated in acutely infected MT4 cells. Median EC50 values together with the fold change in resistance (expressed as a ration of EC50) as compared to wild type (FC) are reported.

For experiment [2], the system named is HIV-1/LAI-derived strain I031L/I, F116F/L, Y181C, G190E, T386A. The experiment in a line: Antiviral activity in MT4 cells, low MOI strain selected at 5.000 μM, day 42. The settings on record: for Fold resistance: Comp. 1 5.000 μM, vs wild type; for EC50: Human immunodeficiency virus 1, MT4, Comp. 1 5.000 μM, read-out: median(EC50 (μM)). Here is the method: as §1, §2, §3, §4

Experiment [3] concerns HIV-1/LAI. The experiment in a line: Antiviral activity in acutely infected MT4 cells, wild-type reference strain. Conditions: for EC50: Human immunodeficiency virus 1, wild-type HIV-1/LAI, no selection, MT4 cells, read-out: median(EC50 (μM)); for Fold resistance: wild-type HIV-1/LAI (reference), ratio of EC50 to wild type. Here is the method: as §1, §2, §4
Experiment [4] relates to HIV-1/LAI-derived strain I031L, A062A/V, Y181C, G190E, T386A. Kind of experiment: Antiviral activity in MT4 cells, low MOI strain selected at 15.000 μM, day 42. The settings on record: for Fold resistance: Comp. 1 15.000 μM, vs wild type; for EC50: Human immunodeficiency virus 1, MT4, Comp. 1 15.000 μM, read-out: median(EC50 (μM)). How it is done:
as §1, §2, §3, §4

Experiment [5] relates to HIV-1/LAI-derived strain E006E/K, Y181C, M230I, T386A. The experiment in a line: Antiviral activity in MT4 cells, low MOI strain selected at 0.200 μM, day 22. The settings on record: Comp. 1 0.200 μM; for Fold resistance: vs wild type; for EC50: Human immunodeficiency virus 1, MT4, 528 h, read-out: median(EC50 (μM)). Here is the method: as §1, §2, §3, §4
In experiment [6] the test system is HIV-1/LAI-derived strain I031L, A062A/V, L074L/V, Y181C, G190E, T386A. Kind of experiment: Antiviral activity in MT4 cells, low MOI strain selected at 15.000 μM, day 59. The settings on record: for Fold resistance: Comp. 1 15.000 μM, vs wild type; for EC50: Human immunodeficiency virus 1, MT4, Comp. 1 15.000 μM, read-out: median(EC50 (μM)). Here is the method:
as §1, §2, §3, §4

Experiment [7] has as its system HIV-1/LAI-derived strain M164M/I, Y181C, D186D/N, M230M/I, T386A. Kind of experiment: Antiviral activity in MT4 cells, low MOI strain selected at 0.200 μM, day 28. Conditions: Comp. 1 0.200 μM; for Fold resistance: vs wild type; for EC50: Human immunodeficiency virus 1, MT4, 672 h, read-out: median(EC50 (μM)). Here is the method: as §1, §2, §3, §4
Experiment [8] concerns HIV-1/LAI-derived strain Y181C, T386A. The experiment in a line: Antiviral activity in MT4 cells, low MOI strain selected at 0.040 μM, day 15. The settings on record: Comp. 1 0.040 μM; for Fold resistance: vs wild type; for EC50: Human immunodeficiency virus 1, MT4, 360 h, read-out: median(EC50 (μM)). How it is done:
as §1, §2, §3, §4

Experiment [9] deals with HIV-1/LAI-derived strain L100L/I, Y181C, T386A. The experiment in a line: Antiviral activity in acutely infected MT4 cells, strain selected at high MOI with compound 1 0.200 μM. Conditions: for EC50: Human immunodeficiency virus 1, MT4, 600 h, day 25, read-out: median(EC50 (μM)); for Fold resistance: day 25, vs wild type. How it is done: as §1, §2
(§5) Cells are infected at a high MOI (such as 1-50 CCID50/cell), corresponding to >10^9 viral RNA copies/ml. These experiments have been designed to mimic the quasi-species variability that is observed in HIV infected individuals where 10^9 to 10^10 new viruses are produced daily with a mutation rate of 10^−4 to 10^−5. The infected MT4-LTR-EGFP cells are treated with inhibitors at 40, 200 nM, 1 μM and higher for a maximum of 30 days. The cultures are subcultivated and scored on virus-induced fluorescence and cytopathicity every 3-4 days. If full virus breakthrough (100% CPE) is observed the supernatants was collected and stored (new virus strain). If no full CPE was observed the cells were subcultivated and further grown in the presence of the same concentration compound till full virus breakthrough, with a maximum of 30 days. From the emerging virus populations a virus stock was grown in the absence of compounds and titrated. The sensitivities of the isolated strains to HIV-1 RT inhibitors were determined and the strains were genotyped.
as §4

Experiment [10] deals with HIV-1/LAI-derived strain I031L/I, Y181C, G190E, T386A. Kind of experiment: Antiviral activity in MT4 cells, low MOI strain selected at 5.000 μM, day 35. The settings on record: for Fold resistance: Comp. 1 5.000 μM, vs wild type; for EC50: Human immunodeficiency virus 1, MT4, Comp. 1 5.000 μM, read-out: median(EC50 (μM)). Here is the method:
as §1, §2, §3, §4

Experiment [11] deals with HIV-1/LAI. Kind of experiment: In vitro selection of resistant strains, high MOI, MT4-LTR-EGFP cells. Conditions: starting strain LAI, 0.200 μM, emerging L100L/I, Y181C, T386A. How it is done:
as §5
(§6) In vitro drug selection experiments starting from wild-type HIV-1/LAI under pressure of compound 1, Efavirenz and Nevirapine have been performed.

Experiment [12] concerns HIV-1/LAI. Kind of experiment: In vitro selection of resistant strains, low MOI, MT4-LTR-EGFP cells. The settings on record: Y181C, T386A.
Text: as §3, §6

As usually defined, the EC50 is the concentration at which the effect is half-maximal.

Turning to `O=C1Nc2ccc(Cl)cc2[C@@](C#CC2CC2)(C(F)(F)F)O1` [Efavirenz], the Fold resistance in experiment [1] is reported as 46 fold; in experiment [2], 44 fold; in experiment [3], 1 fold; in experiment [4], 209 fold; in experiment [5], 7 fold; in experiment [6], >10,000 fold. Also, the Fold resistance was determined as 7 fold in [7], 7 fold in experiment [8] and 208 fold in experiment [9]. The EC50 in experiment [1] was 0.0465 µM; in [2], 0.0442 µM; in experiment [3], 0.001 µM; in experiment [4], 0.209 µM; in experiment [5] it was 0.0067 µM; in [6] it was greater than 10 µM. In addition, the EC50 in [7] was 0.0072 µM; in experiment [8] it was 0.0067 µM; in [9], 0.208 µM.

`Cc1ccnc2c1NC(=O)c1cccnc1N2C1CC1` [Nevirapine]: the Fold resistance was greater than 131 fold in experiment [1]; greater than 131 fold in experiment [2]; 1 fold in experiment [3]; greater than 131 fold in experiment [4]; greater than 131 fold in [5]; greater than 131 fold in experiment [6]. Further, the Fold resistance in experiment [7], in experiment [10] and in experiment [8] was greater than 131 fold throughout. For the same compound, the EC50 in experiment [1] is greater than 10 µM; in [2] it was greater than 10 µM; in experiment [3], 0.0763 µM; in experiment [4] it was greater than 10 µM; in experiment [5], greater than 10 µM; in experiment [6] it was greater than 10 µM. The EC50 in experiment [7], in experiment [10] and in experiment [8] was greater than 10 µM throughout.

As to `Cc1cc(C#N)cc(C)c1Oc1nc(Nc2ccc(C#N)cc2)nc(N)c1Br` [Compound 1, Benzonitrile, 4-[[6-amino-5-bromo-2-[(4-cyanophenyl)-amino]-4-pyrimidinyl]oxy]-3,5-dimethyl-], the Fold resistance is reported as 155 fold in [1]; 90 fold in experiment [2]; 1 fold in experiment [3]; 441 fold in experiment [4]; 21 fold in [5]; >7,143 fold in [6]. Besides, the Fold resistance in experiment [7] came out at 16 fold; in experiment [10], 282 fold; in [8], 24 fold; in [9], 78 fold. In addition, the EC50 is 0.217 µM in experiment [1]; 0.126 µM in experiment [2]; 0.0014 µM in experiment [3]; 0.618 µM in experiment [4]; 0.0298 µM in [5]; greater than 10 µM in experiment [6]. Also, the EC50 in experiment [7] came to 0.0228 µM; in experiment [10], 0.394 µM; in experiment [8], 0.0334 µM; in experiment [9], 0.11 µM. Further, the Days to breakthrough entry is “day 25” in [11]; “day 15” in experiment [12] (0.040 μM); “day 22” in [12] (0.200 μM, E006E/K, M230I); “day 28” in [12] (0.200 μM, M164M/I, D186D/N, M230M/I); “day 35” in experiment [12] (1.000 μM, G190E); “day 42” in experiment [12] (5.000 μM, I031L/I, F116F/L, G190E). In addition, the Days to breakthrough result in experiment [12] (5.000 μM, I031L/I, G190E) is on record as “day 35”; in experiment [12] (15.000 μM, I031L, A062A/V, L074L/V, G190E), “day 59”; in experiment [12] (15.000 μM, I031L, A062A/V, G190E) it was “day 42”.
